Reference: the NIST ThermoML archive (doi:10.1016/j.jct.2016.01.012)

Assays:
[1] = xn = mol fraction of the nth substance listed; settings: 100 kPa, Liquid; for viscosity: Falling or rolling sphere viscometry; for mass density: Vibrating tube method
[2] = refractive index (Na D-line) (dimensionless); xn = mol fraction of the nth substance listed; settings: 298.15 K, 100 kPa, Liquid, Standard Abbe refractometry

CN(C)C(=[NH2+])N(C)C.c1c[n-]cn1 [1,1,3,3-tetramethylguanidinium imidazol-1-ide] + O
[1]
Settings	mass density, 303.15 K [kg/m3]	mass density, 308.15 K [kg/m3]	mass density, 313.15 K [kg/m3]	viscosity, 303.15 K [mPa·s]	viscosity, 308.15 K [mPa·s]	viscosity, 313.15 K [mPa·s]
x1 = 0.0511	1016.67	1013.28	1009.78	–	1.854	1.617
x1 = 0.0991	1016.58	1012.53	1008.4	–	3.021	2.592
x1 = 0.207	1016.83	1012.42	1007.97	–	4.956	4.126
x1 = 0.3005	1011.06	1006.59	1002.09	8.853	7.201	5.934
x1 = 0.3834	1006.9	1002.43	997.94	9.629	7.806	6.428
x1 = 0.4978	1001.35	996.88	992.4	9.809	7.952	6.542
x1 = 0.6356	996.54	992.07	987.61	9.023	7.354	6.07
x1 = 0.8019	992.72	988.36	983.97	7.768	6.42	5.363
x1 = 0.8984	990.26	985.81	981.34	6.72	5.611	4.756
x1 = 1	988.35	983.9	979.46	6.044	5.097	4.358

[2]
Settings	refractive index
x1 = 0.0511	1.3973
x1 = 0.0991	1.4278
x1 = 0.207	1.4589
x1 = 0.3005	1.4722
x1 = 0.3834	1.4787
x1 = 0.4978	1.485
x1 = 0.6356	1.4889
x1 = 0.8019	1.4922
x1 = 0.8984	1.4923
x1 = 1	1.4943
